# In US20150183737A1, “COMPOSITIONS AND METHODS FOR SUBSTRATE-SELECTIVE INHIBITION OF ENDOCANNABINOID OXYGENATION” (Vanderbilt University, priority 2012, published 2015):
# Entries after “also recorded” stand apart in the source; their conditions may differ.
# Legend:
# [1] = system: brain eCB, AA and PG levels; assay: Brain eCB, NAE, MAG, AA and PG levels after i.p. injection; assay type: in vivo, mice
# ICR mice [2] = assay: Novel open field test; assay type: in vivo
# Procedure: Animals were tested for open-field activity in a novel environment one hour after i.p. injection of compound as described in Sumislawski et al., 2011. Briefly, one-hour sessions were performed using automated experimental chambers (27.9 27.9 cm; MEDOFA-510; MED Associates, Ga., Vermont, United States of America) under constant illumination within a sound-attenuated room. Analysis of open field activity was performed using Activity Monitor v5.10 (MED Associates).
# ICR mice [3] = assay: Elevated plus-maze (EPM); assay type: in vivo; settings: 10 mg/kg
# ICR mice [4] = assay: Novel object recognition; assay type: in vivo; settings: 10 mg/kg i.p., prior to object memory retrieval
# Procedure: Mice were handled 4 days prior to training for at least 1 min per day. During pre-training, mice were placed in an open Plexiglas rectangular chamber for 10 minutes in order for the mice to become familiar with the testing environment. Twenty-four hours later, the mice were placed into the same rectangular chamber with two identical sample objects, yellow rubber ducks, for 10 minutes in order for the mice to become familiar with the objects. During training, the sample objects were placed in opposite corners in the back of the chamber 5 cm from each wall and secured by weight to the floor of the chamber. Twenty-four hours later, the mice were placed into the chamber again with one sample or familiar object and a novel object, a white leaf statue, for 5 minutes. During testing, the objects were placed in opposite corners in the back of the chamber 5 cm from each wall and secured by weight to the floor of the chamber.
# To determine exploration time with the sample and novel objects, each mouse was timed when interacting with the sample or novel object when the nose of the mouse was in contact with the object or directed toward the object within a 2 cm distance of the object. […] In addition, a discrimination ratio (e.g., ratio of a mouse's interaction with a novel object to that mouse's total interaction with both sample and novel objects) was determined. […]
# [5] = 10 mg/kg i.p. (Compound A: any dose tested), 2 hours
# [6] = 2 hours after i.p administration, dose not stated
compound,measurement,setting,value
"COc1ccc2c(c1)c(CC(=O)N1CCOCC1)c(C)n2C(=O)c1ccc(Cl)cc1 [Compound A, 2-[1-(4-Chloro-benzoyl)-5-methoxy-2-methyl-1H-indol-3-yl]-1-morpholin-4-yl-ethanone]",Whole brain AEA levels,"[1]; 3 mg/kg i.p., 2 hours, male ICR mice",significantly increased
same,Brain 2-AG levels in wild type littermates of COX-2 knockout mice,[1]; 10 mg/kg,significantly increased
same,"Brain 2-AG levels, meta-analysis of 12 cohorts",[1]; 10 mg/kg,109 % of vehicle
same,Brain AA or PG levels in WT or COX-2^(−/−) mice,[1]; 10 mg/kg,did not affect
same,Brain AEA levels in wild type littermates of COX-2 knockout mice,[1]; 10 mg/kg,significantly increased
same,"Brain AEA, meta-analysis of 12 cohorts",[1]; 10 mg/kg,139 % of vehicle
same,Brain levels of MAGs other than 2-AG,[1]; 10 mg/kg,did not affect
same,Brain AA levels,[1]; [5],did not significantly affect
same,Brain PG levels,[1]; [5],did not affect
same,Brain 2-AG levels,"[1]; 10 mg/kg i.p. (highest dose), 2 hours, vs vehicle",non-significant trend to increase; also recorded: significantly increased
same,Brain levels of NAEs other than AEA,"[1]; 10 mg/kg i.p., 2 hours",not any other NAE; also recorded: no other NAE
same,Brain AEA levels,"[1]; 10 mg/kg i.p., 2 hours, vs vehicle",significantly increased
same,Brain 2-AG levels (Example 8),[1]; [6],without affecting
same,Brain AEA levels (Example 8),[1]; [6],increased
same,"Brain 2-AG levels after JZL-184 treatment, compared to JZL-184 alone",[1]; combination treatment,additional significant increase
same,"Brain AEA levels when combined with PF-3845, compared to PF-3845 alone",[1]; combination treatment,significant additional increase
same,Brain or lung PG levels (Example 8),[1]; dose not stated,did not affect
same,Brain AEA and 2-AG levels in CB1^(−/−) mice,"[1]; mouse, in vivo",significantly increased
same,Brain PG levels in CB1^(−/−) mice,"[1]; mouse, in vivo",no effect; also recorded: without affecting
same,Ability to increase brain AEA levels in COX-2 knockout (KO) mice,[1]; present in wild type littermates,absent
same,Brain AEA levels in WT and FAAH KO mice,[1]; similar extent in both genotypes,increased
same,Center distance travelled and center time in the open-field arena,ICR mice [2]; 10 mg/kg,increased
same,Open field behavior in mice treated with Rimonabant,ICR mice [2]; Rimonabant 3 mg/kg,no significant behavioral effect
same,Exploratory behavior and center time exploration in the open field (Example 8),ICR mice [2]; most pronounced during minutes 40-60,dose-dependently increased
same,Open field behavior (center distance or time) in CB1^(−/−) mice,"ICR mice [2]; mouse, in vivo",did not produce any behavioral effect; also recorded: did not increase
same,Open field behavior in COX-2^(−/−) mice,"ICR mice [2]; mouse, in vivo",did not produce any significant behavioral effects
same,Open field behavior in vehicle-pretreated mice,"ICR mice [2]; mouse, in vivo",exerting anxiolytic actions
same,Open field behavior in wild type littermates of COX-2^(−/−) mice,"ICR mice [2]; mouse, in vivo",normal anxiolytic-like response
same,Hypolocomotion,ICR mice [2]; open field data,did not cause hypolocomotion
same,Open arm latency,ICR mice [3],significantly reduced; also recorded: decreased
same,"Other EPM parameters (open arm time, total distance traveled)",ICR mice [3],did not affect; also recorded: did not increase
same,Memory deficits in the novel object recognition assay,ICR mice [4],did not induce memory deficits
